For assay [1], the system named is Wnt pathway (Sp5-Luc reporter, TCF/LEF binding sites) in SW480 colon carcinoma cells. Nature of the assay: Screening assay for Wnt activity: Sp5-Luc reporter gene assay.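 Further: firefly luciferase luminescence read in stably transduced SW480 cells carrying the Sp5 promoter reporter with eight TCF/LEF sites, compounds given in 0.1% DMSO final.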 It counts as cell-based, human. The conditions noted are these: Homo sapiens; Sp5-Luc reporter, SW480 cells, 36 to 48 hours. In general terms: In a reporter assay the amount or activity of a reporter protein is the signal.
Description: The screening assay for Wnt activity is described as follows.
Following incubation, 15 μl of BriteLite Plus luminescence reagent (Perkin Elmer) was added to each well of the 384-well assay plates. The plates were placed on an orbital shaker for 2 min and then luminescence was quantified using the Envision (Perkin Elmer) plate reader.

Assay [2] deals with recombinant DYRK1A kinase (Homo sapiens (Human), UniProt Q13627). Nature of the assay: DYRK1A kinase assay (Ser/Thr 18 peptide Z-lyte FRET).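 Further: Read-out is the coumarin to fluorescein emission ratio, referenced to unphosphorylated (0%) and phosphorylated (100%) Ser/Thr 18 peptide controls, values from dose-response curves by non-linear regression.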 The assay is classed as biochemical. The conditions noted are these: 30 μM ATP, 1 h room temperature.
The next assay concerns the target recombinant GSK3β kinase (Homo sapiens (Human), UniProt P49841). Nature of the assay: GSK3β kinase assay (Ser/Thr 09 peptide Z-lyte FRET).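 Further: kinase activity read as coumarin to fluorescein emission ratio, 11-point threefold dilutions from 10 µM to 0.0003 µM in duplicate, unphosphorylated and phosphorylated peptide as 0% and 100% controls.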 The assay is classed as biochemical. The conditions noted are these: 46 μM ATP, 1 h room temperature.
Assay [3] concerns Tau phosphorylation at Ser396 (pSer396). Nature of the assay: Tau phosphorylation assay (pSer396 ELISA / western blot) in SH-SY5Y cells.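 Further: EC50 for reduction of Tau pSer396 in lysed cells, measured by colorimetric ELISA or chemiluminescent western blot, both using the same pSer396 antibody.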 The assay is classed as cell-based, human. The conditions noted are these: Homo sapiens; SH-SY5Y cells, overnight (16-18 h) exposure; read-out: pSer396 Tau EC50.
Assay [4] relates to SW480 colon carcinoma cells. Nature of the assay: Cell viability assay (CellTiter-Glo). It counts as cell-based, human. The conditions noted are these: Homo sapiens, 96 h; SW480 cells, CellTiter-Glo, four days incubation. In general terms: ATP-based viability assays read luminescence as a measure of living cells.
Assay [5] has as its system α-smooth muscle actin (αSMA) positive LL29 cells. Nature of the assay: Inhibition of fibrotic process: αSMA in TGF-β1 treated primary human fibroblasts from IPF patients.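 On all read-outs here: controls were TGF-β1 stimulated wells with DMSO vehicle (positive) and cells given DMSO alone (negative), cultured in F12 medium with 1% fetal bovine serum.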 The conditions noted are these: Homo sapiens, Fibroblast; for EC50: 96 h, Table 8, LL29 fibroblasts from IPF patients, TGF-β1 20 ng/mL, 4 days, dose-response 10 μM to 0.94 nM; for inhibition at 10 µM: read-out: percent value in parentheses beside EC50 >10 μM. The assay is classed as cell-based.

Another assay relates to IL-6. Nature of the assay: IL-6 inhibition in LPS-stimulated human peripheral blood mononuclear cells (HTRF).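 On all read-outs here: IL-6 detected by HTRF with an XL665- and Cryptate-labelled anti-IL-6 antibody pair, samples run in duplicate, EC50 obtained from a four-parameter Levenberg-Marquardt curve fit.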 The assay is classed as cell-based. The conditions noted are these: Homo sapiens, PBMC; for EC50: Table 9, huPBMCs, LPS 50 ng/mL, 22 hours, dose-response starting from 10 μM; for inhibition at 10 µM: read-out: percent value in parentheses beside EC50 >10 μM. A general note: Time-resolved FRET reads energy transfer from a long-lived donor to a nearby acceptor.

Sequence of recombinant GSK3β kinase (P49841 whole entry): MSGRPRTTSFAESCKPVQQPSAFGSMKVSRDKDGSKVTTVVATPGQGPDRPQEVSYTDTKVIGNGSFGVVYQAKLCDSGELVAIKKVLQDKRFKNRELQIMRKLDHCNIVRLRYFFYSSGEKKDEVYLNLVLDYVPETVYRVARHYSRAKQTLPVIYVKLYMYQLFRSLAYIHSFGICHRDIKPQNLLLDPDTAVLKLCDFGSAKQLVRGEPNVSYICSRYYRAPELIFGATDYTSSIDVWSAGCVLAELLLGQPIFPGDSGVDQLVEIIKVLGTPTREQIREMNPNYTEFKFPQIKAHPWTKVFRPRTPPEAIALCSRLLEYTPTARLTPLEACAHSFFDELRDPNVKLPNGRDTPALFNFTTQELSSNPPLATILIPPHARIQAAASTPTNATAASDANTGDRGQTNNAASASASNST
Description for IL-6: After 22 hour incubation, a mixture of anti-IL6 XL665 and anti-IL-6 Cryptate diluted in reconstitution buffer (Catalog #62IL6PEC, Cisbio Inc., Bedford, Mass.) was added to each well. […] All samples were processed in duplicate. […] EC50 was determined using software generated by Dotmatics Limited (Windhill Bishops Stortford Herts, UK) using the Levenberg-Marquardt 4 parameter fitting procedure with finite different gradients.

`Cn1cc(-c2ccc3cnc(NC(=O)[C@H]4CC[C@H](CN5CC(F)C5)CC4)cc3c2)cn1` [Compound 10, trans-4-((3-Fluoroazetidin-1-yl)methyl)-N-(6-(1-methyl-1H-pyrazol-4-yl)isoquinolin-3-yl)cyclohexane-1-carboxamide]: the EC50 in assay [1] was 0.277 µM; in assay [2], 0.0013 µM; at recombinant GSK3β kinase it was 0.051 µM; in assay [3] it was 0.227 µM; in assay [4] it was 0.324 µM; in assay [5] it was above 10 µM. In the assay on IL-6, this compound displayed an EC50 of 0.399 µM. The inhibition at 10 µM in assay [5] stood at 39.6%.
Turning to `CN1CCN(C[C@H]2CC[C@H](C(=O)Nc3cc4cc(-c5cnn(C)c5)ccc4cn3)CC2)CC1` [Compound 14, trans-N-(6-(1-Methyl-1H-pyrazol-4-yl)isoquinolin-3-yl)-4-((4-methylpiperazin-1-yl)methyl)cyclohexane-1-carboxamide], the EC50 in assay [1] amounted to 0.354 µM; in assay [2], 0.0015 µM; at recombinant GSK3β kinase, 0.059 µM; in assay [3] it was 0.408 µM; in assay [4] it was 0.898 µM; in assay [5], 0.035 µM. The same compound registered an EC50 in the assay with IL-6 of 0.643 µM.
On to `Cn1cc(-c2ccc3cnc(NC(=O)C4CNC4)cc3c2)cn1` [Compound 16, N-(6-(1-Methyl-1H-pyrazol-4-yl)isoquinolin-3-yl)azetidine-3-carboxamide], for which the EC50 in assay [1] was above 10 µM; in assay [2], 0.0039 µM; on recombinant GSK3β kinase it was 0.024 µM; in assay [3], above 10 µM; in assay [4], 7.84 µM; in assay [5], 1.27 µM. Moreover, the EC50 with IL-6 came out at 2.17 µM.
For `Cn1cc(-c2ccc3cnc(NC(=O)CN4CC[C@H](F)C4)cc3c2)cn1` [Compound 69, (S)-2-(3-Fluoropyrrolidin-1-yl)-N-(6-(1-methyl-1H-pyrazol-4-yl)isoquinolin-3-yl)acetamide], the EC50 in assay [1] was determined as 3.7 µM; in assay [2], 0.0062 µM; at recombinant GSK3β kinase, 0.013 µM; in assay [3], 0.383 µM; in assay [4], 3.93 µM; in assay [5], 0.394 µM. In the assay on IL-6, this compound came in with an EC50 of 2.16 µM.
For `Cn1cc(-c2ccc3cnc(NC(=O)[C@@H]4CCCO4)cc3c2)cn1` [Compound 71, (S)—N-(6-(1-Methyl-1H-pyrazol-4-yl)isoquinolin-3-yl)tetrahydrofuran-2-carboxamide], the EC50 in assay [1] was 3.9 µM; in assay [2], 0.0136 µM; on recombinant GSK3β kinase, 0.062 µM; in assay [3] it was 1.51 µM; in assay [4], 8.1 µM; in assay [5], above 10 µM. This compound also had an EC50 in the assay on IL-6 of 6.73 µM. Besides, the inhibition at 10 µM in assay [5] was 33.4%.
For the compound `CC(C)N1CCC(C(=O)Nc2cc3cc(-c4cnn(C)c4)ccc3cn2)CC1` [Compound 75, 1-Isopropyl-N-(6-(1-methyl-1H-pyrazol-4-yl)isoquinolin-3-yl)piperidine-4-carboxamide], the EC50 in assay [1] was determined as 0.52 µM; in assay [2], 0.0026 µM; at recombinant GSK3β kinase, 0.064 µM; in assay [3] it was 0.227 µM; in assay [4] it was 1.32 µM; in assay [5] it was 0.148 µM. In the assay on IL-6, this compound yielded an EC50 of 0.806 µM.
As for `Cn1cc(-c2ccc3cnc(NC(=O)C4CCN(C5COC5)CC4)cc3c2)cn1` [Compound 86, N-(6-(1-methyl-1H-pyrazol-4-yl)isoquinolin-3-yl)-1-(oxetan-3-yl)piperidine-4-carboxamide], the EC50 is 4 µM in assay [1]; 0.0025 µM in assay [2]; 0.048 µM at recombinant GSK3β kinase; 0.682 µM in assay [3]; above 10 µM in assay [4]; above 10 µM in assay [5]. In the assay with IL-6, it took 1.77 µM to reach a half-maximal effect (EC50). In addition, in assay [5], the inhibition at 10 µM was found to be 14.6%.
On to `Cn1cc(-c2ccc3cnc(NC(=O)C4CCN(CC5(C)COC5)CC4)cc3c2)cn1` [Compound 87, N-(6-(1-Methyl-1H-pyrazol-4-yl)isoquinolin-3-yl)-1-((3-methyloxetan-3-yl)methyl)piperidine-4-carboxamide], for which the EC50 amounted to 1 µM in assay [1]; 0.0033 µM in assay [2]; 0.032 µM at recombinant GSK3β kinase; 0.414 µM in assay [3]; 3.16 µM in assay [4]; 0.081 µM in assay [5]. Also, the EC50 in the assay with IL-6 was 2.94 µM.
In the case of `COCCN1CCC(C(=O)Nc2cc3cc(-c4cnn(C)c4)ccc3cn2)CC1` [Compound 89, 1-(2-Methoxyethyl)-N-(6-(1-methyl-1H-pyrazol-4-yl)isoquinolin-3-yl) piperidine-4-carboxamide], the EC50 is 0.765 µM in assay [1]; 0.0027 µM in assay [2]; 0.064 µM on recombinant GSK3β kinase; 0.364 µM in assay [3]; 0.738 µM in assay [4]; 0.137 µM in assay [5]. In the assay with IL-6, this compound came in with an EC50 of 1.14 µM.
As for `CC(C)OCCN1CCC(C(=O)Nc2cc3cc(-c4cnn(C)c4)ccc3cn2)CC1` [Compound 90, 1-(2-Isopropoxyethyl)-N-(6-(1-methyl-1H-pyrazol-4-yl)isoquinolin-3-yl) piperidine-4-carboxamide], the EC50 was 1.1 µM in assay [1]; 0.003 µM in assay [2]; 0.042 µM at recombinant GSK3β kinase; 0.302 µM in assay [3]; 1.17 µM in assay [4]; 0.096 µM in assay [5]. Moreover, in the assay on IL-6, it took 1.08 µM to reach a half-maximal effect (EC50).
Turning to `Cn1cc(-c2ccc3cnc(NC(=O)C4(F)CCNCC4)cc3c2)cn1` [Compound 91, 4-Fluoro-N-(6-(1-methyl-1H-pyrazol-4-yl)isoquinolin-3-yl)piperidine-4-carboxamide], the EC50 was above 10 µM in assay [1]; 0.0105 µM in assay [2]; 0.838 µM at recombinant GSK3β kinase; 4.7 µM in assay [3]; 9.59 µM in assay [4]; above 10 µM in assay [5]. In addition, in the assay on IL-6, the EC50 was above 10 µM. Also, the inhibition at 10 µM in assay [5] amounted to 17.3%; in the assay with IL-6, 40%.
In the case of `CN1CCC(F)(C(=O)Nc2cc3cc(-c4cnn(C)c4)ccc3cn2)CC1` [Compound 92, 4-Fluoro-1-methyl-N-(6-(1-methyl-1H-pyrazol-4-yl)isoquinolin-3-yl) piperidine-4-carboxamide], the EC50 is 1.6 µM in assay [1]; 0.0065 µM in assay [2]; 0.361 µM on recombinant GSK3β kinase; 3.9 µM in assay [3]; 0.983 µM in assay [4]; above 10 µM in assay [5]. Also, the EC50 with IL-6 was above 10 µM. In addition, the inhibition at 10 µM in assay [5] came to 16.7%; in the assay with IL-6 it was 33%.
Regarding `CC(C)CN1CCC(F)(C(=O)Nc2cc3cc(-c4cnn(C)c4)ccc3cn2)CC1` [Compound 96, 4-Fluoro-1-isobutyl-N-(6-(1-methyl-1H-pyrazol-4-yl)isoquinolin-3-yl) piperidine-4-carboxamide], the EC50 in assay [1] is above 10 µM; in assay [2], 0.0071 µM; at recombinant GSK3β kinase, 0.35 µM; in assay [3] it was 2 µM; in assay [4] it was above 10 µM; in assay [5], 0.677 µM. The EC50 in the assay with IL-6 is above 10 µM. In addition, the inhibition at 10 µM with IL-6 was 5.8%.
With `Cn1cc(-c2ccc3cnc(NC(=O)[C@H]4CCCNC4)cc3c2)cn1` [Compound 110, (S)—N-(6-(1-Methyl-1H-pyrazol-4-yl)isoquinolin-3-yl)piperidine-3-carboxamide], the EC50 in assay [1] was determined as 1.1 µM; in assay [2], 0.0047 µM; on recombinant GSK3β kinase it was 0.034 µM; in assay [3], 0.636 µM; in assay [4], 1.05 µM; in assay [5] it was 0.286 µM. In the assay with IL-6, the EC50 worked out at 0.484 µM.

As usually defined, the EC50 is the concentration giving half of the maximal effect.

The values above are taken from patent publication US10287267B2, “Isoquinolin-3-yl carboxamides and preparation and use thereof” (Samumed, LLC, priority 2016, dated 2019).
